Data taken from patent publication US20130023555A1, “KINASE INHIBITOR WITH IMPROVED SOLUBILITY PROFILE” (Abbott Laboratories, priority 2011, published 2013).

Columns and labels:
Format in all cases: biochemical
FLT1 = target: T1, FLT1 (Homo sapiens, UniProt P17948); assay: HTRF in vitro kinase assay, FLT1; conditions: 1 mM ATP
T1 construct: His6
T1 sequence (P17948 786-1338 limits assumed): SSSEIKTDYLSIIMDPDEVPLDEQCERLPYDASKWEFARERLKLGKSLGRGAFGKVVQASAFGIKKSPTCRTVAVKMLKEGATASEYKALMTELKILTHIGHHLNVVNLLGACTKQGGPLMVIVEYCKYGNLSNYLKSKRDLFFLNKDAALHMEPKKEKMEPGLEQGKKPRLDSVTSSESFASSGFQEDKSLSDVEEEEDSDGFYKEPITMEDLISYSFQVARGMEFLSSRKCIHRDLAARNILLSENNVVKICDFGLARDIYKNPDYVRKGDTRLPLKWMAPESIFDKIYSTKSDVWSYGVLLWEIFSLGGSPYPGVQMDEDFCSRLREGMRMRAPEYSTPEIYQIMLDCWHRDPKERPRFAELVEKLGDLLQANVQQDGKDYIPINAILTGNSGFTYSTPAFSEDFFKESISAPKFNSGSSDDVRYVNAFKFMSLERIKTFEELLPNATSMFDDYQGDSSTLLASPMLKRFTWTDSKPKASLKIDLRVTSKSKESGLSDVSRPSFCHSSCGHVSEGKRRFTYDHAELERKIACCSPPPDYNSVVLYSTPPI
Description: (§1) To determine the activity of the various kinases, a homogenous time-resolved fluorescence (HTRF) in vitro kinase assay was used. (Mathis, G., HTRF(R) Technology. J Biomol Screen, 1999. 4(6): p. 309-314; Alfred J. Kolb, Paul V. Kaplita, David J. Hayes, Young-Whan Park, Christine Pernell, John S. Major and Gerard Mathis, Drug Discovery Today, 1998, 3, 333-342.)
(§2) For example for KDR, cKIT, FLT1, CSF1R and FTL3, purified enzyme was mixed with 0.5 μM N-biotinylated substrate (Biotin-Ahx-[…]-amide (SEQ. ID. 1)), various concentrations of inhibitor in reaction buffer (50 mM HEPES, pH 7.1, 10 mM MgCl2, 2 mM MnCl2, 0.1% BSA and 1 mM DTT, 40 μL final volume), ATP (1 mM final conc.) in a black 384-well plate. […] The quenched reaction was allowed to stand at room temperature for 3 hours and was then read in a time-resolved fluorescence detector (InVision, Perkin-Elmer) at 620 nm and 665 nm sequentially with excitation. The ratio between the signal of 620 nm and 665 nm was used in the calculation of the IC50.

CSF1R = target: T2, CSF1R (Homo sapiens, UniProt P07333); assay: HTRF in vitro kinase assay, CSF1R; conditions: 1 mM ATP
T2 construct: CSF-1R Q547- C972; M-His(6) (N)
T2 sequence (P07333 547-972): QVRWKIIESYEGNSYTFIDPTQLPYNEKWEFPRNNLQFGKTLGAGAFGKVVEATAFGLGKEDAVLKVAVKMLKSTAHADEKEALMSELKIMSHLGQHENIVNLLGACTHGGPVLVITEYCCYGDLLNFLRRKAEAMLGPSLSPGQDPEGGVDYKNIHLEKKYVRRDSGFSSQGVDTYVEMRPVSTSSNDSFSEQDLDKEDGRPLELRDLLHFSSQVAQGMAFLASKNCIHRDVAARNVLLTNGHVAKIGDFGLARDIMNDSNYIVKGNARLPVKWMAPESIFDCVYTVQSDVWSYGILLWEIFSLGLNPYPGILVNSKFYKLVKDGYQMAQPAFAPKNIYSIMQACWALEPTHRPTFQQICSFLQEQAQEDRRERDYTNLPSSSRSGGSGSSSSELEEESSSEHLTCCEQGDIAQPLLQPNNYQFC
Description: as §1, §2

KDR = target: T3, KDR (Homo sapiens, UniProt P35968); assay: HTRF in vitro kinase assay, KDR; conditions: 1 mM ATP
T3 construct: KDR 789- 1354; His6 (N)
T3 sequence (P35968 789-1354): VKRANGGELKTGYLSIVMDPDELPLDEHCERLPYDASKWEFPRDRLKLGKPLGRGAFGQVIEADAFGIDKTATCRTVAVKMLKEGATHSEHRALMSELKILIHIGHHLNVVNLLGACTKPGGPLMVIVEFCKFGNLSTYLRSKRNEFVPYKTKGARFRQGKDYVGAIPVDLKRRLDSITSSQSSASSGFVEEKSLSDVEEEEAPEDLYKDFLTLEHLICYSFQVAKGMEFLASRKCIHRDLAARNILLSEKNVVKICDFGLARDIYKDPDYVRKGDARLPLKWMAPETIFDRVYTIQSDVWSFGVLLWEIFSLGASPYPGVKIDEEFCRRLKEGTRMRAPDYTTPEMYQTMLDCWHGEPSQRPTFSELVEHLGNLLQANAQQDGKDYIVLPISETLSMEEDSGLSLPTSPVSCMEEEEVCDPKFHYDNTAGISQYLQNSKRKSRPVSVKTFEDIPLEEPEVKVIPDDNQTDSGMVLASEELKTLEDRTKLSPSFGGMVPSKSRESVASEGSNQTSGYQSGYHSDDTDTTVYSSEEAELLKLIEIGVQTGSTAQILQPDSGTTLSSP
Description: as §1, §2

Aurora A = target: T4, Aurora A (Homo sapiens, UniProt O14965); assay: Aurora A enzyme assay (time-resolved fluorescence); conditions: 1 mM ATP
T4 sequence (O14965 1-403): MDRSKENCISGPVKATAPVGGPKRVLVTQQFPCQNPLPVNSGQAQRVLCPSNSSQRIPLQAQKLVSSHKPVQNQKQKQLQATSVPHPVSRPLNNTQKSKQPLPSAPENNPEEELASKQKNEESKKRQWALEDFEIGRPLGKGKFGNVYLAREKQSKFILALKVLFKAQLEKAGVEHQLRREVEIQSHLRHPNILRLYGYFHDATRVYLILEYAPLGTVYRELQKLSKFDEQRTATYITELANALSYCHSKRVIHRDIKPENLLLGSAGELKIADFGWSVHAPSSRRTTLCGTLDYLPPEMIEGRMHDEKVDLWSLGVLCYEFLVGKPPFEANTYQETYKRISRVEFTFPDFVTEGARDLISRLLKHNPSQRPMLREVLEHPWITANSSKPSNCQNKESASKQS
Description: (§3) After 1 hour, the reaction was stopped with EDTA and anti-phospho-STK antibody Europium Cryptate (Upstate) and SA-XL665 (Upstate) were added to detect the phosphopeptide. The amount of phosphorylation was determined by the time-resolved fluorescence ratio of signals at 665 nm and 615 nm. The IC50s were calculated by an exponential fit of the inhibition values with the inhibitor concentrations using Assay Explorer software.

Aurora B = target: T5, Aurora B (Homo sapiens, UniProt Q96GD4); assay: Aurora B enzyme assay (time-resolved fluorescence); conditions: 1 mM ATP, with INCENP
T5 construct: Active Aurora B enzyme (recombinant residues 1-344)
T5 sequence (Q96GD4 whole entry, the tested form may be a part): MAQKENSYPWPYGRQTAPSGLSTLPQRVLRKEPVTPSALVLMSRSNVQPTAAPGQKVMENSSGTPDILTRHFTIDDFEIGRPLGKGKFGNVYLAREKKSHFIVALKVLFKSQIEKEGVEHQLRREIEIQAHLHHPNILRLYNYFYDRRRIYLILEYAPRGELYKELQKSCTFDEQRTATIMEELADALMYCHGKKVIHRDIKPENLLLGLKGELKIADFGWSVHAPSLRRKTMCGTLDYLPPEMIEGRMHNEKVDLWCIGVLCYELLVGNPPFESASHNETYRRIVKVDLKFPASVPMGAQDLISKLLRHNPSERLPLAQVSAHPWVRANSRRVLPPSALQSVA
T5 sequence (Q9NQS7 803-918 partner limits assumed): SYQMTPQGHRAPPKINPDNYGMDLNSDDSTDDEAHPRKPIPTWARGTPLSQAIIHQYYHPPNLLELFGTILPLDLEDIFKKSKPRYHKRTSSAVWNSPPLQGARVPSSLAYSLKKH
Description: as §3, with “anti-phospho-histone H3” for “anti-phospho-STK antibody”, “(Cis-Bio)” for “(Upstate)”, “SA-APC (Phycolink, Prozyme)” for “SA-XL665 (Upstate)”, “IC50's” for “IC50s”

IC50 (FLT1): 2 nM
IC50 (CSF1R): 3 nM
IC50 (KDR): 2 nM
IC50 (Aurora A): 58 nM
IC50 (Aurora B): 1.3 nM
SMILES: CNC(=O)c1cnc(N)c2c(-c3ccc(NC(=O)Nc4cccc(C)c4)cc3)csc12 [Example 2, 4-amino-N-methyl-3-(4-{[(3-methylphenyl)carbamoyl]amino}phenyl)thieno[3,2-c]pyridine-7-carboxamide]
